Test results: US20260248799A1, “COMBINATIONS OF RETINALDEHYDE DEHYDROGENASE 1 (RALDH1) INHIBITORS AND IMMUNOSTIMULATORS AND METHODS USING SAME” (The Trustees of the University of Pennsylvania, priority 2023, published 2026)

Assays:
primary human monocytes = assay: Human monocyte DC differentiation with SNU398 cells or conditioned media; assay type: cell-based
Source text: FIGS. 22A-22E: RALDH1 inhibition blocks RA-mediated effects of HCC on monocyte differentiation. FIGS. 22A-22B: Circulating primary human monocytes from donors (FIG. 22A) or murine monocytes from bone marrow (FIG. 22B) were cocultured with SNU398 (Human HCC) cells or treated with SNU398-conditioned media (CM) in a DC differentiation system (GM-CSF and IL-4). Two-color histograms show the frequencies of DCs (CD11c^+CD1a^+ for human and CD11c^+MHCII^+ for mouse). The presence of SNU398 or its CM suppressed DC differentiation, which is reversed when SNU398 cells are treated with C86. Three or more independent experiments were performed with at least three replicates per experimental group. Unpaired t test, two-tailed. FIG. 22C: Huh7 (human HCC) cells were subcutaneously injected into flanks of NU/J mice. […] The frequencies of the host (murine) DCs (CD45^+F4/80^−CD11C^+MHCII-high) and macrophages (CD45^+F4/80^+) are quantified in a bar graph. […] Shown are the representative FCM plot (histogram) and DC quantification (bar graph). […]
Mouse monocytes were isolated from bone marrow as described herein and then cultured in RPMI 1640 (ThermoFisher Scientific, Cat #11875085) with 10% fetal bovine serum (GeminiBio, Cat #100-500). […] Cellular identity and function of differentiated monocytes was assessed by flow cytometry and quantitative PCR (qPCR).

[1] = biological target: T1, Cholinesterase, Acetyl, ACES (Homo sapiens, UniProt P22303); assay: Safetyscreen: Acetyl cholinesterase; assay type: biochemical; details: read-out: % Inh. Cholinesterase, Acetyl, ACES
T1 construct: Eurofins Cerep Panlabs (contract panel)
T1 sequence (P22303 32-614): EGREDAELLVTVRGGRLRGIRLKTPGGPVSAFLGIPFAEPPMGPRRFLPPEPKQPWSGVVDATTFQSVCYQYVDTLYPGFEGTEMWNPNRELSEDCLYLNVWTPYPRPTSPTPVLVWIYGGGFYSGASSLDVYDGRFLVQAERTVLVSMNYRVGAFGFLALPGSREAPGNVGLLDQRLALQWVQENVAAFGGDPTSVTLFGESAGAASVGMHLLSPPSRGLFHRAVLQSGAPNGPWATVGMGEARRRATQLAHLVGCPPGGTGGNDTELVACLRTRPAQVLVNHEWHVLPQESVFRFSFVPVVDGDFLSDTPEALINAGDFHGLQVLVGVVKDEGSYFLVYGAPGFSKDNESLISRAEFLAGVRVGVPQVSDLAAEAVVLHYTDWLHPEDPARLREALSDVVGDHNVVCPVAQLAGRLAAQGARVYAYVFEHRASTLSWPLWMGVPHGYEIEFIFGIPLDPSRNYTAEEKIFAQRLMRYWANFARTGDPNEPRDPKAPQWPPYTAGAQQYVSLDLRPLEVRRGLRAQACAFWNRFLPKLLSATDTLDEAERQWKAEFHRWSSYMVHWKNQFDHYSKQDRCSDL

Cyclooxygenase COX-1 = biological target: T2, Cyclooxygenase COX-1 (Homo sapiens, UniProt P23219); assay: Safetyscreen: COX-1; assay type: biochemical; details: read-out: % Inh. Cyclooxygenase COX-1
T2 construct: Eurofins Cerep Panlabs (contract panel)
T2 sequence (P23219 24-599): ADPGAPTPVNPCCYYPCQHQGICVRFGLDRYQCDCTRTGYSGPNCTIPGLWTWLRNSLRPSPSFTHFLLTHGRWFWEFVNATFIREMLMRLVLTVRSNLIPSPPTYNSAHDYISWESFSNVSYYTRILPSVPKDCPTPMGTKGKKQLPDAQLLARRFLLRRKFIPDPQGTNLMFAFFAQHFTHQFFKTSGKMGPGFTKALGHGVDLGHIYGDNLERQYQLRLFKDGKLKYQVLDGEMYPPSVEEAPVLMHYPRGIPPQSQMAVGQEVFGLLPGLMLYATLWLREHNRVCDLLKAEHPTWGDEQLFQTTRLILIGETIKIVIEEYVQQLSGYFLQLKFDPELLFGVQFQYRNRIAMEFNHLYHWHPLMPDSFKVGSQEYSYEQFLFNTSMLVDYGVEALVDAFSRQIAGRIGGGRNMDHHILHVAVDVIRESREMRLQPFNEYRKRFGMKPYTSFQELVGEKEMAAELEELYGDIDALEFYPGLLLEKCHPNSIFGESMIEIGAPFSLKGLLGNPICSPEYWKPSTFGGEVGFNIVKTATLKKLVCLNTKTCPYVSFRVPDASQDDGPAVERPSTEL

Monoamine Oxidase MAO-B = biological target: T3, Monoamine Oxidase MAO-B (Homo sapiens, UniProt P27338); assay: Safetyscreen: MAO-B; assay type: biochemical; details: read-out: % Inh. Monoamine Oxidase MAO-B
T3 construct: Eurofins Cerep Panlabs (contract panel)
T3 sequence (P27338 whole entry): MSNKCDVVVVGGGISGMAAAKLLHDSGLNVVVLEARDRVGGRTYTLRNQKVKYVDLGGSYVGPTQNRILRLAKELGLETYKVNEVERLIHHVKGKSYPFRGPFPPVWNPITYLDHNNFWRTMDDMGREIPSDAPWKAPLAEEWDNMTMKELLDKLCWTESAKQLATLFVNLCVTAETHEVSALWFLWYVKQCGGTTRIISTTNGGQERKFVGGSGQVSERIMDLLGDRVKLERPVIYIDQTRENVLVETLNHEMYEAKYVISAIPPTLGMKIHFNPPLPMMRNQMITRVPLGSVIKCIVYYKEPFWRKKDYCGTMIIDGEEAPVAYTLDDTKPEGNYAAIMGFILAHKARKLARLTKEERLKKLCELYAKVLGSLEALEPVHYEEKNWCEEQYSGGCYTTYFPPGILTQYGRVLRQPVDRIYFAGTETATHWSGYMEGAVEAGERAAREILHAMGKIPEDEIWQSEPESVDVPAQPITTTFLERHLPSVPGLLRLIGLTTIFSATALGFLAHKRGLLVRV

Adrenergic β2 = biological target: T4, Adrenergic β2 (Homo sapiens, UniProt P07550); assay: Safetyscreen: Adrenergic β2; assay type: binding; details: read-out: % Inh. Adrenergic β2
T4 construct: Eurofins Cerep Panlabs (contract panel)

[2] = biological target: T5, Glutamate, Metabotropic, mGlu5 (Homo sapiens, UniProt P41594); assay: Safetyscreen: mGlu5; assay type: binding; details: read-out: % Inh. Glutamate, Metabotropic, mGlu5
T5 construct: purchased Eurofins Cereps Panlabs
T5 sequence (P41594 21-1212): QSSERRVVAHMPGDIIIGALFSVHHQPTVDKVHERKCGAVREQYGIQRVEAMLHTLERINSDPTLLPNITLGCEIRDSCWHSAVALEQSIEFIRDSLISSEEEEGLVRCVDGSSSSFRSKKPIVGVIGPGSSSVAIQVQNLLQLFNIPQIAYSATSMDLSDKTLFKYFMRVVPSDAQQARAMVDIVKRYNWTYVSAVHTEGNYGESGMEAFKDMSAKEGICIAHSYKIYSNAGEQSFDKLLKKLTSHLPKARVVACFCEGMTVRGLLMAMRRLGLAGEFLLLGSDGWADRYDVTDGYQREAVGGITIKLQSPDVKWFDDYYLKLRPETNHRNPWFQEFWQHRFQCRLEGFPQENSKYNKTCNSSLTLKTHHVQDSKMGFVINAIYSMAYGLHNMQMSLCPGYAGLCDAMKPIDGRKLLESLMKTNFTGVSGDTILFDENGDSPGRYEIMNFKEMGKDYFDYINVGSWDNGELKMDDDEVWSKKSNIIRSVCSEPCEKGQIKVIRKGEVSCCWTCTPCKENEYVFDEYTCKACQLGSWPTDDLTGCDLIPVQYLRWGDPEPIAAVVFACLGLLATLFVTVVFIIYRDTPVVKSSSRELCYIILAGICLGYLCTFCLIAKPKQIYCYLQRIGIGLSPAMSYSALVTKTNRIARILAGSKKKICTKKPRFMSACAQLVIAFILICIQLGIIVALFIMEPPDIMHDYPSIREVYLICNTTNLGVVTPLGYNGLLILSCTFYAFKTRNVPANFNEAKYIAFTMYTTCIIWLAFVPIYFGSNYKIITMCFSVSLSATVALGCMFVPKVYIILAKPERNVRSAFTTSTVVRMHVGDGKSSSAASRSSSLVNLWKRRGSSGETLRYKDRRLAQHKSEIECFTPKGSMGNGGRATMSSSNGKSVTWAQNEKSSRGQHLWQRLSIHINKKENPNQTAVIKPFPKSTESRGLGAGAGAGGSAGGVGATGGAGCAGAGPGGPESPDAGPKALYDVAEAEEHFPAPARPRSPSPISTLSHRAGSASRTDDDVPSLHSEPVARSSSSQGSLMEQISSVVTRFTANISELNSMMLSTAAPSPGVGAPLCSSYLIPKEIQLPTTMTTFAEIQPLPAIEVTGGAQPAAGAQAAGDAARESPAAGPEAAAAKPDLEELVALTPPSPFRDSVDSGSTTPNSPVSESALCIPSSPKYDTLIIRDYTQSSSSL

[3] = tested on: Glutamate, NMDA, Phencyclidine; assay: Safetyscreen: NMDA, Phencyclidine; assay type: binding, rat; details: 10 μM
Histamine H2 = biological target: T6, Histamine H2 (Homo sapiens, UniProt P25021); assay: Safetyscreen: Histamine H2; assay type: binding; details: read-out: % Inh. Histamine H2
T6 construct: purchased Eurofins Cereps Panlabs
T6 sequence (P25021 whole entry): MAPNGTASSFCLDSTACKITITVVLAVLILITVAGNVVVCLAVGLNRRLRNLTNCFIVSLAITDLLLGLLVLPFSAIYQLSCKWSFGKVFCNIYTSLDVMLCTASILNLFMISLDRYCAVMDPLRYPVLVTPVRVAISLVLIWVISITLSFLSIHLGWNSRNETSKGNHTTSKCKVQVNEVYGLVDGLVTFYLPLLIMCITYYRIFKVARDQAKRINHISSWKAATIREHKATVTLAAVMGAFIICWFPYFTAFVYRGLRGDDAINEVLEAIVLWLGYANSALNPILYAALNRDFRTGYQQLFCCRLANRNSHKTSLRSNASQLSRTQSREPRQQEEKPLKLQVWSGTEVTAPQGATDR

Muscarinic M3 = biological target: T7, Muscarinic M3 (Homo sapiens, UniProt P20309); assay: Safetyscreen: Muscarinic M3; assay type: binding; details: read-out: % Inh. Muscarinic M3
T7 construct: Eurofins Cereps Panlabs (contract panel)

Opiate κ(OP2, KOP) = biological target: T8, Opiate κ(OP2, KOP) (Homo sapiens, UniProt P41145); assay: Safetyscreen: Opiate κ; assay type: binding; details: read-out: % Inh. Opiate κ(OP2, KOP)
T8 construct: Eurofins Cereps Panlabs (contract panel)
T8 sequence (P41145 whole entry): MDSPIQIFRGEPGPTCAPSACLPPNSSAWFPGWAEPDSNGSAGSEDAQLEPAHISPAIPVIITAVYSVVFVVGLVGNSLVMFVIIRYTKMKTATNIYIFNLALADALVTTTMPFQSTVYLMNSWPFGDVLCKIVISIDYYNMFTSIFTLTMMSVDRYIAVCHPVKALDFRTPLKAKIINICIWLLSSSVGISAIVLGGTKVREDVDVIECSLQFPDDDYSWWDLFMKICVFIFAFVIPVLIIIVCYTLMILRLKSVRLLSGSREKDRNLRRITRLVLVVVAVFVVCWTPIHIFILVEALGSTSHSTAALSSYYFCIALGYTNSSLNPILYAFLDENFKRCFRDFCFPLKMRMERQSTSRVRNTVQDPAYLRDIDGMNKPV

PPARγ = biological target: T9, PPARγ (Homo sapiens, UniProt P37231); assay: Safetyscreen: PPARγ; assay type: binding
T9 construct: Eurofins Cereps Panlabs (contract panel)
T9 sequence (P37231 whole entry): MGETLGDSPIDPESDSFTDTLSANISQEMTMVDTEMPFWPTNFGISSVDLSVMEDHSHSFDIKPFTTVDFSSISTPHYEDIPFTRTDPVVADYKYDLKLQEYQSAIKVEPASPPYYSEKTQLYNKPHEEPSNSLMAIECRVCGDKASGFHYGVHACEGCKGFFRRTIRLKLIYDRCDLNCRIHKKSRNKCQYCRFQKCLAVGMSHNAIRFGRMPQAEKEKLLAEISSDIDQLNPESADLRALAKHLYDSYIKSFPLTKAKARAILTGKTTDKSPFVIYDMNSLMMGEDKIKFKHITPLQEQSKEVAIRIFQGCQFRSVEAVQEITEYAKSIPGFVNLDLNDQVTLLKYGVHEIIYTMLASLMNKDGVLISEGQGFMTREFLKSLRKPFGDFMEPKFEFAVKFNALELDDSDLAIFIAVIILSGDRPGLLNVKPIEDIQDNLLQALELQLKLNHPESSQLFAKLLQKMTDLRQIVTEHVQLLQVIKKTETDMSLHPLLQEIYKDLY

[4] = biological target: T10, Serotonin (5-Hydroxytryptamine) 5-HT2B (Homo sapiens, UniProt P41595); assay: Safetyscreen: 5-HT2B; assay type: binding; details: read-out: % Inh. Serotonin (5-Hydroxytryptamine) 5-HT2B
T10 construct: Eurofins Cereps Panlabs (contract panel)
T10 sequence (P41595 whole entry): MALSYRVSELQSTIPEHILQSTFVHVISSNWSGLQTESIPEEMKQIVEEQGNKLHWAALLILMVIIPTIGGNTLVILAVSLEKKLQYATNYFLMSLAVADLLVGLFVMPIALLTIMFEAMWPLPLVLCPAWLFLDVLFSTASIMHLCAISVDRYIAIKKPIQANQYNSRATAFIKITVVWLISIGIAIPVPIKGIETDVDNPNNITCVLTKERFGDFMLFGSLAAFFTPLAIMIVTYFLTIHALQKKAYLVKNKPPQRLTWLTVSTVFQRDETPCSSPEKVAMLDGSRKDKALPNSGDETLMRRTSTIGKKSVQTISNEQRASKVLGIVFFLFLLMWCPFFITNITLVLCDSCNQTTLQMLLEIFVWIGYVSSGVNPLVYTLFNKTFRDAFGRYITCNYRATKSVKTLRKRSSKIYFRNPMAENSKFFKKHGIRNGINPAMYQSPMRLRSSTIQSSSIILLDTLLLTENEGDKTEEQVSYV

Tachykinin NK1 = biological target: T11, Tachykinin NK1 (Homo sapiens, UniProt P25103); assay: Safetyscreen: Tachykinin NK1; assay type: binding; details: read-out: % Inh. Tachykinin NK1
T11 construct: Eurofins Cereps Panlabs (contract panel)
T11 sequence (P25103 whole entry): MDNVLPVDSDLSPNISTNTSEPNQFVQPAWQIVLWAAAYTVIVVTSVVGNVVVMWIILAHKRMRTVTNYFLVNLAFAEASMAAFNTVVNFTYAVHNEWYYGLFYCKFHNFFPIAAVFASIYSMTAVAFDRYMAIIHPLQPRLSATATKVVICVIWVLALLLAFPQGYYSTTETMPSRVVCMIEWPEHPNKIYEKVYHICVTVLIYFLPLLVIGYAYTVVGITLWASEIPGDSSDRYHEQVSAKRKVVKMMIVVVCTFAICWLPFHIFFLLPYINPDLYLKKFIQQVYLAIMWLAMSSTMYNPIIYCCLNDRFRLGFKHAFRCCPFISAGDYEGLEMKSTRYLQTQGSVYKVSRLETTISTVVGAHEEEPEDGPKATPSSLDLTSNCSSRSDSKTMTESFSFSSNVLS

## CS(=O)(=O)N1CCN(C(=O)c2cnc3ccc(F)cc3c2N2CCC(C#N)(c3ccccc3)CC2)CC1 [Compound C-86, 1-(6-fluoro-3-(4-(methylsulfonyl)piperazine-1-carbonyl)quinolin-4-yl)-4-phenylpiperidine-4-carbonitrile]
Primary human monocytes; direct treatment of monocytes in vitro
  potential of monocytes to differentiate into DCs: did not alter
Primary human monocytes; human monocytes, HCC cells pre-treated
  suppression of DC differentiation by HCC cells or CM: reversed
[1]
  inhibition at 10 µM: 3%
Cyclooxygenase COX-1
  inhibition at 10 µM: 6%
Monoamine Oxidase MAO-B
  inhibition at 10 µM: 4%
Adrenergic β2
  inhibition at 10 µM: 11%
[2]
  inhibition at 10 µM: 16%
[3]
  % Inh. Glutamate, NMDA, Phencyclidine: 5%
Histamine H2
  inhibition at 10 µM: -3%
Muscarinic M3
  inhibition at 10 µM: 5%
Opiate κ(OP2, KOP)
  inhibition at 10 µM: 41%
PPARγ
  inhibition at 10 µM: 12%
[4]
  inhibition at 10 µM: -5%
Tachykinin NK1
  inhibition at 10 µM: 37%
